Experimental data taken from US20040092575A1, “Use of certain substituted pyrrolidones such as piracetam in the treatment of viral and other diseases” (priority 2001, published 2004).

What was measured:
[1] = test system: viral tilted peptide; test: fusion process induced on LUV by the viral tilted peptide (analogues); settings: at the doses tested
Description: The same in vitro study as in Example 1 was used to investigate two analogues (levetiracetam and (R)-(−)-alpha-ethyl-2-oxo-1-pyrrolidine acetamide) in comparison with piracetam.

[2] = test system: acute viral hepatitis; test: Effect of piracetam on patients exhibiting acute viral hepatitis; format: in vivo
Experimental: 110 patients with acute hepatitis, hospitalised from the first or the second week of icterus, were included in the study. All patients were assigned to rest, and received diet and vitamins.
A first group received piracetam at a daily dose of 2.4 g (3×0.8 g/day), a second group received no piracetam and acted as control group. The main parameters were serum bilirubine and transaminases, measured once a week during the whole icterus period.
Inclusion criteria were bilirubine ([…]) (N<0.3) and transaminases (>400 U) (N<40).
The criteria for a positive response were bilirubine <1.5 mg/dl and transaminases <100 U.

[3] = test system: hepatitis C virus (HCV); test: Effect of piracetam on patients exhibiting chronic C virus hepatitis; format: in vivo
Description: 6 patients with chronic transfusion associated hepatitis C virus (HCV) received 6 months therapy with piracetam at a daily dose of 10.8 g (3×3.6 g/d) with no other treatment associated. This was followed by a 3 months period of no treatment. All patients, interferon non-responders, had chronic hepatitis from 6 to 19 years. The main criterion of efficacy was serum viral load (HCV-RNA) performed by polymerase chain reaction (PCR) at 0, 3, 6 and 9 months. These patients had manifested a gradual rise in their HCV-RNA. Thus, the criteria for no response was defined as no change in the increase of HCV-RNA, a positive response as a status quo of serum HVC-RNA and a significant response as a decrease of at least half a log of HCV-RNA.

[4] = test system: A-201 cells devoid of CD4 receptors; test: formation of syncitia by fusion of infected cells with uninfected neighbouring cells, A-201 cells; format: cell-based, HIV; settings: no CD4 receptor, accordingly to the doses used
Description: (§1) HV has the property on cultured cells to provoke the formation of syncitia by fusion of infected cells with uninfected neighboring cells, when the virus ends its replication.
(§2) Virus have become remarkably opportunistic in exploring whatever complicated shapes they may find on the host cell surface as binding receptors (e.g. CD4, CXCR4, CCR5, CKR-5, CKR-3).
(§3) This study therefore investigated the ability of piracetam to inhibit the formation of syncitia, […], the primary binding receptor of HIV. For this purpose, two cultures of cells were used, A-201 cells devoid of CD4 receptors and SUP-Ti cells presenting CD4 receptors.

[5] = test system: SUP-Ti cells presenting CD4 receptors; test: formation of syncitia by fusion of infected cells with uninfected neighbouring cells, SUP-Ti cells; format: cell-based, HIV; settings: CD4 receptor present, accordingly to the doses used
Description: as §1, §2, §3

[6] = biological target: T1, titled peptide of HUV-wt (wild type)(16 AA) (Human immunodeficiency virus type 1 group M subtype B, UniProt P04578); test: fusion of large unilamellar vesicles (LUV) provoked by tilted peptide of HUV-wt; parameters: species or system HIV; settings: at the doses tested
T1 construct: titled peptide of HUV-wt (wild type)(16 AA)

[7] = biological target: titled peptide of SIV-wt (12AA) (Simian immunodeficiency virus, UniProt P05885); test: fusion of large unilamellar vesicles (LUV) provoked by tilted peptide of SIV-wt; settings: at the doses tested
[8] = biological target: T2, Alzheimer's β-amyloid tilted peptide 29-40 (Homo sapiens, UniProt P05067); test: fusion process induced by Alzheimer's β-amyloid tilted peptide 29-40 on membrane models; settings: amyloid peptide 29-40
T2 construct: two Alzheimer's β-amyloid tilted peptides (29-40 and 29-42) on membrane models
Experimental: (§4) Four fundamental studies using different tools such as conformational analysis, biophysical methods, NMR and two-hybrid assay were carried out.

[9] = biological target: T3, Alzheimer's β-amyloid tilted peptide 29-42 (Homo sapiens, UniProt P05067); test: fusion process induced by Alzheimer's β-amyloid tilted peptide 29-42 on membrane models; settings: amyloid peptide 29-42
T3 construct: two Alzheimer's β-amyloid tilted peptides (29-40 and 29-42) on membrane models
Experimental: as §4

[10] = test system: herpes simplex virus 1 (HSV1); settings: Vero cells culture, in vitro; cited from earlier work
[11] = patients receiving piracetam from the first week of icterus
[12] = piracetam introduced after incubation of peptide with liposomes, whatever the dose
[13] = preincubation of piracetam before addition of the peptide

CC[C@H](C(N)=O)N1CCCC1=O [(R)-(−) alpha-ethyl-2-oxo-1-pyrrolidineacetamide]
inhibitory effect on the fusion process induced on LUV [1]: very clear inhibitory effect

CC[C@@H](C(N)=O)N1CCCC1=O [levetiracetam, (S)-α-ethyl-2-oxo-1-pyrrolidineacetamide]
inhibitory effect on the fusion process induced on LUV [1]: very clear inhibitory effect

NC(=O)CN1CCCC1=O [piracetam, 2-oxo-pyrrolidineacetamide]
Clinical tolerance ([2]; acute hepatitis patients, 2.4 g daily (3×0.8 g/day)): excellent | reduction of the icterus phase ([2]; compared to the control group, except for 6 patients out of 49): 50% | evolution in serum bilirubine levels [2, 11]: positive evolution was especially observed | evolution in serum transaminases [2, 11]: more pronounced | bilirubine levels ([2]; patients receiving piracetam from the second week of icterus): not significantly reduced | evolution in serum transaminases ([2]; patients receiving piracetam, 2.4 g daily): favourable, although non-significant | evolution in serum bilirubine levels ([2]; piracetam group vs control group, 2.4 g daily, p<0.0003): very highly significantly reduced | Clinical tolerance ([3]; chronic HCV patients, 10.8 g daily (3×3.6 g/d), 6 months): excellent | change of serum HCV-RNA ([3]; four of 6 patients, PCR, 10.8 g daily): decrease | decrease of serum HCV-RNA ([3]; the patient most recently infected (6 years), significant): < 0.6 log | increase of serum HCV-RNA ([3]; two of 6 patients, PCR, 10.8 g daily): < 10% | inhibition of the formation of syncitia [4]: inhibited | inhibition of the formation of syncitia [5]: inhibited | inhibition of the fusion of LUV [6]: inhibits the fusion of LUV | inhibition of the fusion of LUV [7]: inhibits the fusion of LUV | inhibition of the fusion process on membrane models ([8]; four studies overall): inhibit the fusion process | inhibition of the fusion process [8, 12]: not able to inhibit | inhibition of the fusion process [8, 13]: inhibits almost completely | inhibition of the fusion process on membrane models ([9]; four studies overall): inhibit the fusion process | inhibition of the fusion process [9, 12]: not able to inhibit | inhibition of the fusion process [9, 13]: inhibits almost completely | ability to stop the replication of HSV1 [10]: stop the replication
